Article PMC8280143, “A novel dephosphorylation targeting chimera selectively promoting tau removal in tauopathies” (Signal Transduction and Targeted Therapy, 2021)
Entries after “also recorded” stand apart in the source; their conditions may differ.

Columns and labels:
Tau368 mice = assay: Novel-object recognition test; type: in vivo, mouse
Description: Novel-object recognition tests were performed one day after the object-place recognition. A similar protocol was used except that object B was replaced by a novel object (object C) in the test phase, and mice preference for the novel object was measured.

HEK293(hTau) cells = assay: CCK8 cell viability assay; type: cell-based, human; settings: to 200 μM, 24 h; normalized to 0-μM group; F(4, 25) = 1.47, P = 0.24
Description: HEK293 cells with stable expression of wild-type full-length human tau (term as HEK293(hTau) cells), were cultured in DMEM (Hyclone, SH30022.01) containing 10% fetal bovine serum (Biological Industries, 04–001-1ACS) and […] G418 (Thermo Fisher Scientific, 10,131,027) under 5% CO2, 37 °C.
HEK293(hTau) cells were administrated with increasing concentration of DEPTAC for 24 h. About 5000 cells were dispensed into each well of a 96-well plate pre-incubated in a humidified incubator under 37 °C, 5% CO2. A total volume of 10 μL CCK-8 solution was delivered into each well of the plate. The plate was incubated for 1–4 h, and the light absorbance was measured at 450 nm using a microplate reader (BioTek-Synergy2). Cell viability (V) was evaluated by the formula: V = (Ad – A0) / (Av – A0) × 100%, where Ad and Av was the absorbance of DEPTAC-treated and vehicle-treated cells, respectively. A0 was the absorbance of wells with only culture medium and CCK8.

MAP2 = MAP2 level in primary neurons; type: cell-based
Description: Cultured cells or hippocampus tissues were collected on ice, and homogenized with RIPA lysis buffer containing 50 mM Tris-HCl, 100 mM NaCl, 1% Triton X-100, 5 mM EDTA, and 1:100 PMSF, and then centrifuged at 12,000 × g for 20 min. The supernatant was collected for the analysis of soluble proteins. In some experiments, the pellets were further incubated with 8% SDS buffer at 37 °C and then ultrasound for 60 times to reach a complete resuspension for the analysis of insoluble tau. Protein concentration was measured through BCA assays (Thermo Fisher). Equal amount of protein from each sample were separated in SDS-PAGE gels, and then transferred onto nitrocellulose or 0.22 μm polyvinylidene fluoride membranes (Merck Millipore). […] Blots were visualized using ECL luminol reagent (P0018FS, Beyotime), and quantified using ImageJ software.

human tau (hTau) [1] = assay: Western blotting of tau in primary neurons with hTau overexpression in the presence of MG132; type: cell-based
Description: (§1) Primary hippocampal neurons were prepared from E12–E15 days SD rat embryos. Briefly, pregnant rats were acutely executed, hippocampus was dissected on ice and gently minced in DME/F12 (Hyclone) then suspended in 0.125% (vol/vol) trypsin solution at 37 °C for 20 min. Enzymatic activity was stopped by fetal bovine serum. Neurons were initially kept in 10% FBS-containing DME/F12 for 4–6 h, and subsequently cultured in Neurobasal (Hyclone) with 2% B27, 1% glutamax and 1% penicillin–streptomycin (Thermo Fisher Scientific) in dishes pre-coated with 100 μg/mL poly-D-lysine. Serum was gradually removed by replacing half of the medium for each time within the following 2 days. Especially, to inhibit the proteasome-dependent proteolysis, the cultured hippocampal neurons were treated with 5 μM MG132 for 5 h before harvest.
Cultured cells or hippocampus tissues were collected on ice, and homogenized with RIPA lysis buffer containing 50 mM Tris-HCl, 100 mM NaCl, 1% Triton X-100, 5 mM EDTA, and 1:100 PMSF, and then centrifuged at 12,000 × g for 20 min. The supernatant was collected for the analysis of soluble proteins. In some experiments, the pellets were further incubated with 8% SDS buffer at 37 °C and then ultrasound for 60 times to reach a complete resuspension for the analysis of insoluble tau. Protein concentration was measured through BCA assays (Thermo Fisher). Equal amount of protein from each sample were separated in SDS-PAGE gels, and then transferred onto nitrocellulose or 0.22 μm polyvinylidene fluoride membranes (Merck Millipore). The membranes were blocked with 5% BSA, and incubated in turn with primary and horseradish peroxidase-conjugated secondary antibodies: pS199-Tau (44734G, Invitrogen, 1:2000), pT205-Tau (11108-1, Signalway, 1:2000), pS396-Tau (11102, Signalway, 1:2000), pS404-Tau (11112, Signalway, 1:2000), AT8 (MN1020, Thermo Fisher, 1:1000), Tau5 (ab80579, Abcam, 1:1000), Tau46 (T9450, Sigma, 1:1000), PP2A-Bα (4953, Cell signaling, 1:1000), Phospho-Ser/Thr (ab17464, Abcam1:1000), Ubiquitin (ab7254, Abcam, 1:1000), MAP2 (AB5622, Millipore, 1:2000), hTau-N368 (a generous gift from Prof. Keqiang Ye, Emory University School of Medicine, 1:1000), DEPTAC (developed by Daian Biotechnology, Wuhan, China, 1:500), β-actin (ab6276, Abcam, 1:2000). HRP-conjugated goat anti-rabbit IgG (A0208, Beyotime, 1:3000), HRP-conjugated goat anti-mouse IgG (A0216, Beyotime, 1:3000). Blots were visualized using ECL luminol reagent (P0018FS, Beyotime), and quantified using ImageJ software.

human tau (hTau) [2] = assay: Immunofluorescence staining of phospho-tau in primary neurons with hTau overexpression; type: cell-based; settings: DEPTAC 200 μM for 24 h; *p < 0.05, **p < 0.01, n = 3 cell wells
Description: Lentivirus LV-EF1α-hTau-GFP (3.50E+8 vg/mL) was packaged by OBiO (Shanghai, China) and used for hTau-overexpression (fused with GFP) in cultured primary rat neurons. AAV-CaMKIIα-Cre (diluted to 5.21E + 07 vg/mL) and AAV-EF1α-DIO-mCherry (3.24E + 12 vg/mL) were obtained from BrainVTA (Wuhan, China) and co-injected (1:1 vol/vol) for sparse labeling of dorsal DG neurons. Doxycycline was purchased from Energy Chemical (Shanghai, China). Rabbit polyclonal DEPTAC antibody was prepared by Daian Biotechnology (Wuhan, China). All other reagents including MG132 were purchased from Sigma-Aldrich (USA), unless otherwise specified.
as §1, with “Especially, to inhibit the proteasome-dependent proteolysis, the cultured hippocampal neurons were treated with 5 μM MG132 for 5 h before harvest.” left out

[3] = 5 μM MG132 for 5 h before harvest, *p < 0.05, n = 3 cell wells

(1) YQQYQDATADEQG, originates from the porcine β-tubulin 422–434 for recognizing and binding tau proteins.[5],[6] (2) GSGS, a linker for increasing the flexibility of the peptide.[15] (3) KKVAVVRTPPKSP, for recruiting PP2A-Bα,[16] and (4) RRRRRRRR [DEPTAC, DEPhosphorylation TArgeting Chimera; 38 amino acid residues, C185H314N72O56]
novel-object recognition in control mice (Tau368 mice; Tau368 mice treated with NW): only limitedly affected
novel-object recognition impairment (Tau368 mice; dox-treated Tau368 mice, 1-month DEPTAC after stopping dox, *p < 0.05, n = 10–15 mice): remarkably ameliorated; also recorded: rescued
cytotoxicity (CCK8) (HEK293(hTau) cells): No cytotoxicity
level of MAP2 (MAP2; Supplementary Fig. S3, specificity to tau): did not change
selectivity to tau proteins (MAP2; discussion): considerable selectivity to tau proteins
efficiency of tau dephosphorylation in the presence of MG132 (human tau (hTau) [1]; 5 μM MG132, compared with absence of MG132, n = 3 cell wells): reduced efficiency; also recorded: less efficiency
reduction of total tau (Tau5 and Tau46) in the presence of MG132 (human tau (hTau) [1]; 5 μM MG132 for 5 h before harvest): abolished
tau dephosphorylation at AT8 epitope in the presence of MG132 (human tau (hTau) [1]; [3]): still significant
tau dephosphorylation at pT205 in the presence of MG132 (human tau (hTau) [1]; [3]): still significant
averaged immunoreactive (IR) intensity of phospho-tau (human tau (hTau) [2]): reduced
